Test results reported in patent publication US20130310374A1, “Substituted Imidazoquinoline Derivatives” (PIRAMAL ENTERPRISES LIMITED`, priority 2010, published 2013).

Experiments:
[1] = tested on: arthritic DBA/1 J mice; assay: Collagen-induced arthritis; type: in vivo, mouse; details: 1 mg/kg, p.o., twice daily
Experimental: Protocol for Collagen-Induced Arthritis
Induction of Collagen-Induced Arthritis and Treatment with Compound of Example 19
All animal experiments were carried out in accordance with the guidelines of Committee for the Purpose of Control and Supervision of Experiments on Animals (CPCSEA). All animal experiments were approved by Institutional Animal Ethics Committee (IAEC) of Piramal Life Sciences Limited, Mumbai, India. Collagen-induced arthritis was induced in DBA/1 J mice as described in J. Exp. Med., 1985, 162, 637-46. Inbred male DBA/1 J mice (8-10 weeks of age, Jackson Laboratories, Bar Harbor, Me.) were immunized intradermally at the base of the tail with 200 μg type II collagen emulsified in Freund's Complete Adjuvant (FCA) on day 0. On day 17, immunized mice were randomized into different groups based on their body weight. From day 17 onwards, (i) one group of mice started receiving administration of compound of Example 19 (1 mg/kg, p.o., twice daily), (ii) a second group of mice started receiving administration of vehicle (0.5% CMC, p.o., twice daily), and (iii) a third group of mice started receiving administration of Enbrel (3 mg/kg, s.c., once daily). On day 21, all mice were boosted with 200 μg type II collagen emulsified in FCA. The mice (8 per treatment group) were monitored daily (from day 17 onwards) for the development and severity of arthritis using articular index and paw thickness as parameters. Articular index scoring was performed employing the following criteria—Fore limbs (Scale 0-3): 0, no redness or swelling; 1, redness but no swelling; 2, redness and swelling of the paw; 3, redness and severe swelling of the paw. […] Swelling of each of the paws of mice was measured with constant-tension, spring-loaded calipers (Mitutoyo, Aurora, Ill.). […]
Treatment continued daily until day 36 of the study, and the body weight of the animal along with the severity of inflammation for all 4 paws was monitored daily. […]

[2] = tested on: human PANC-1 xenograft tumors; assay: Pancreatic cancer xenograft model (tumor growth inhibition in vivo); set-up: species or system mouse; details: SCID mice, 3 mpk once daily p.o., 14 days; FIG. 3B
Experimental: Animals: Severe combined immunodeficient (SCID) mice (Male and Female) 6 to 8 weeks old, were used. Animals were housed in suitable cages under specified pathogen-free conditions in rooms maintained at 23° C. and 50% humidity, with a 12-hour light/12-hour dark cycle. The mice were quarantined during the acclimatization period of at least a week.
Pancreatic Cancer xenograft model: The human pancreatic carcinoma cells, (PANC-1) (ATCC) were grown in Eagle's Minimum Essential Medium (SAFC, US) supplemented with 10% (v/v) fetal bovine serum. The cells were incubated at 37° C. in a humidified atmosphere containing 5% CO2. […]
Tumor-bearing mice were randomized in two groups when the mean tumor weight was ˜100 mg. […] Twice a week, each xenograft was measured in two dimensions (a=length; b=width) with a caliper. Tumor volume (V) was determined by the following equation:
Tumor volumes were converted into tumor weights assuming a tumor density of 1 mm^3=1 mg. Tumor growth inhibition (TGI) for each group was calculated according to the following formula: […]
Wherein, T and T0 are the mean tumor volumes on a specific experimental day and on day 1 of treatment, respectively, for the experimental groups. […] Animals in each group were observed every day for signs of health deterioration and animal weight was recorded daily. […]

[3] = target: T1, mTOR (Homo sapiens, UniProt P42345); assay: mTOR inhibition assay (ProQinase); type: biochemical; details: tested at ProQinase, Germany; read-out: IC50, mTOR enzyme activity
T1 construct: ProQinase, Germany (contract testing)
Experimental: The compounds of the present invention were tested at ProQinase, Germany.

SMILES | Bone erosion and joint space narrowing ([1]; day 17 to day 36) | Joint destruction, hyperproliferative pannus formation and infiltration of inflammatory cells ([1]; day 17 to day 36) | Disease-associated increase in articular index and paw thickness ([1]; day 17 to day 36, FIGS. 4a and 4b) | Growth of pancreatic tumors, PANC-1 xenograft [2] | IC50 [3]
COc1ccc(-n2c(=O)n(C)c3cnc4ccc(-c5cnc(N)c(C(F)(F)F)c5)cc4c32)cn1 [Example 19, 8-(6-Amino-5-(trifluoromethyl)pyridin-3-yl)-1-(6-methoxypyridin-3-yl)-3-methyl-1H-imidazo[4,5-c]quinolin-2(3H)-one] | distinctly protects against bone erosion and joint space narrowing | prominently diminishes joint destruction, hyperproliferative pannus formation and infiltration of inflammatory cells | inhibits disease-associated increase in articular index and paw thickness |  | 
CS(=O)(=O)O.Cn1c(=O)n(-c2ccc(C(C)(C)C#N)nc2)c2c3cc(-c4cnc(N)c(C(F)(F)F)c4)ccc3ncc21 [Example 3a, 8-(6-Amino-5-(trifluoromethyl)pyridin-3-yl)-1-(6-(2-cyanopropan-2-yl)pyridin-3-yl)-3-methyl-2-oxo-2,3-dihydro-1H-imidazo[4,5-c]quinolin-5-ium methanesulfonate] |  |  |  | effectively inhibited the growth of pancreatic tumors | 4.4 nM
